Source: article PMC11206297, “Targeting NAD Metabolism: Rational Design, Synthesis and In Vitro Evaluation of NAMPT/PARP1 Dual-Target Inhibitors as Anti-Breast Cancer Agents” (Molecules, 2024)
Read-outs that look alike come from different tables or passages of the source.

Tests used:
MDA-MB-231 = assay: MTT cell viability assay, MDA-MB-231; assay type: cell-based; conditions: Homo sapiens, 72 h, mean ± SEM, read-out: Cytotoxicity IC50 MDA-MB-231
Description: (§1) MDA-MB-468, MDA-MB-231, MCF-7, and MCF-10A cell lines were obtained from the National Collection of Authenticated Cell Culture, China. The cells were cultured in DMEM medium supplemented with 10% FBS and 1% penicillin/streptomycin, and maintained at 37 °C in a humidified atmosphere with 5% CO2.
(§2) Cell viability was assessed using the MTT assay. Cells were seeded at a density of 3 × 10^3 cells per well in a 96-well plate and treated with various concentrations (0.05, 0.2, 0.8, 3.2, 6.4, 12.8 µM) of the compounds for 72 h. After incubation, 100 µL of MTT solution (0.5 mg/mL) was added to each well and further incubated for 4 h. The resulting formazan crystals were dissolved in 150 µL of DMSO, and the absorbance was measured at 570 nm using a microplate reader.

MDA-MB-468 cells [1] = assay: Western blot of BCL2; assay type: cell-based; conditions: 24 h
Description: (§3) Cells were then lysed using RIPA buffer supplemented with protease and phosphatase inhibitors. Protein concentrations were determined using the BCA Protein Assay Kit (Thermo Fisher Scientific^TM, Waltham, MA, USA). Equal amounts of protein (20–30 µg) were separated by SDS-polyacrylamide gel electrophoresis and transferred to a polyvinylidene fluoride (PVDF) membrane. The membrane was blocked with 5% milk in PBS before incubation with primary antibodies. Primary antibodies against γ-H2AX (Cell Signaling Technology™, Danvers, MA, USA), BCL2 (Abcam™, Cambridge, UK), and β-actin (Proteintech™, Rosemont, IL, USA) were used. After overnight incubation at 4 °C, membranes were washed and incubated with HRP-conjugated secondary antibodies for 1 h. Protein bands were visualized using ECL reagents (Labgic Technology^TM, Beijing, China).

MDA-MB-468 = assay: MTT cell viability assay, MDA-MB-468; assay type: cell-based; conditions: Homo sapiens, 72 h, mean ± SEM, read-out: Cytotoxicity IC50 MDA-MB-468
Description: as §1, §2

MCF-10A = assay: MTT cell viability assay, MCF-10A normal breast epithelial cells; assay type: cell-based, human; conditions: for viability at 3 µM: Homo sapiens, 72 h, MCF-10A, mean ± SEM, read-out: Cell Survival Rate; for selectivity of cytotoxic activity between breast cancer cells and normal cells (MCF-10A): comparison of Tables 2 and 3
Description: as §1, §2

[2] = as above; assay type: cell-based, human; conditions: human, MCF-10A normal breast epithelial cells; MCF-10A; mean ± SEM; read-out: Cytotoxicity IC50
Description: as §1, §2

MDA-MB-468 cells [3] = assay: Western blot of γ-H2AX; assay type: cell-based; conditions: 24 h
Description: as §3

MDA-MB-468 cells [4] = assay: NMN rescue of cytotoxicity; assay type: cell-based; conditions: 200 μM NMN
Text: NMN is the direct product of the NAMPT-catalyzed reaction. Excessive NMN can counteract the inhibitory effect of NAMPT inhibition. […] The reversal of DDY02’s efficacy by NMN underscores the compound’s mechanism of action and confirms the critical role of NAMPT inhibition in mediating its therapeutic effects. This observation also emphasizes the potential of NMN as a modulator in therapeutic scenarios involving NAMPT-targeted treatments.

MDA-MB-468 cells [5] = assay: Wound scratch cell migration assay; assay type: cell-based; conditions: up to 48 h
Description: MDA-MB-468 cells were plated in 6-well plates at a density of 5 × 10^5 cells/well and allowed to incubate overnight. A scratch was carefully generated in the cell monolayer using a 10 µL pipette tip. […] Images were acquired at 0, 12, 24, and 48 h time points to monitor and analyze the migration of cells over the specified intervals.

MCF-7 = assay: MTT cell viability assay, MCF-7; assay type: cell-based; conditions: Homo sapiens, MCF7, 72 h, mean ± SEM, read-out: Cytotoxicity IC50 MCF-7
Description: as §1, §2

MDA-MB-468 cells [6] = assay: Colony formation (clonogenic) assay; assay type: cell-based; conditions: MDA-MB-468, 7 days
Description: MDA-MB-468 cells were plated in 6-well plates at a density of 500 cells/well and allowed to grow for 7 days to promote colony formation. Following the incubation period, cells were washed with PBS, fixed in methanol for 15 min, and stained with 1% crystal violet for 1 h. Subsequently, colonies were imaged and counted.

PARP1 [7] = molecular target: T1, PARP1 (Homo sapiens, UniProt P09874); assay: PARP1 enzymatic inhibition assay (ELISA, chemiluminescence); assay type: biochemical; conditions: for inhibition at 0.5 µM: duplicate, average, read-out: PARP1 Inhibition Rate
T1 sequence (P09874 whole entry): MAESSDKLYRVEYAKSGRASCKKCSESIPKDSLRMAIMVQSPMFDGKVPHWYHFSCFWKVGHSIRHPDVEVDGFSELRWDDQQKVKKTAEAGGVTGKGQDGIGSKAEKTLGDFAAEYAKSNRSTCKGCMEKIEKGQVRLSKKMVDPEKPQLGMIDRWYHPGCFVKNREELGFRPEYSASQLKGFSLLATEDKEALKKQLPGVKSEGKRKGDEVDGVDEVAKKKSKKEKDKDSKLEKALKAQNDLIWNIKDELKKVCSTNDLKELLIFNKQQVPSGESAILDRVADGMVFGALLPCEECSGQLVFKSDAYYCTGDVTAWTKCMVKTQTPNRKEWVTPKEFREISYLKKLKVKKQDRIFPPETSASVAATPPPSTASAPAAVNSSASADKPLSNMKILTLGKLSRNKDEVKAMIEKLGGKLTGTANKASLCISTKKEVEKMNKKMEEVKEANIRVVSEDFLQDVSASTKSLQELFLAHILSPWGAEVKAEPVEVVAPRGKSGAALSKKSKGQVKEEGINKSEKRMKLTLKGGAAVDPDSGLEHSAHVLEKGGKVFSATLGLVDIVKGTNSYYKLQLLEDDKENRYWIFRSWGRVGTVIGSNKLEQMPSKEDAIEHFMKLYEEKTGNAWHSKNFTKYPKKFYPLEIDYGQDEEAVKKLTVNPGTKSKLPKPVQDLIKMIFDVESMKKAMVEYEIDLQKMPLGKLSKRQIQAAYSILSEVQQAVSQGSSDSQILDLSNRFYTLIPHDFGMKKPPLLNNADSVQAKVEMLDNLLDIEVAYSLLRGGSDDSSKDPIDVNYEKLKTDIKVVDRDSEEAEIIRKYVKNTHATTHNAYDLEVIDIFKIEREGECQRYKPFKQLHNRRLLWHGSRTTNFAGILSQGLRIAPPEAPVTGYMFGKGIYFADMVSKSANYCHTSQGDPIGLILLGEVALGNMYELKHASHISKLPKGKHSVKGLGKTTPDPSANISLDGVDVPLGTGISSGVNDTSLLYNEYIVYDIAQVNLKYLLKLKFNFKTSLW

MDA-MB-468 cells [8] = assay: Cell cycle analysis (PI staining, flow cytometry); assay type: cell-based; conditions: 48 h, several concentrations
Description: Cell cycle distribution was determined using a DNA Content Quantitation Assay Kit (Solarbio, China). MDA-MB-468 cells were seeded in six-well plates and treated with various […]
treatment, cells were harvested, ﬁxed in 70% ethanol at 4°C overnight, and washed with PBS.
Cells were then incubated with RNase (100 µL) at 37°C for 30 minutes followed by propidium iodide (PI) staining (400 µL, 30 minutes, 4°C in the dark). Cell cycle distribution was analyzed using an Accuri C6 Plus ﬂow cytometer (BD Biosciences, CA) and data were processed using […]
Figure S5. DDY02 induced cell cycle of MDA-MB-468 cells arrest in the G1 phase.
(1 picture or pasted object on this page, not shown here)

NAMPT = NAMPT (Homo sapiens, UniProt P43490); assay: NAMPT enzymatic inhibition assay (fluorescence, coupled NMNAT/alcohol dehydrogenase); assay type: biochemical; conditions: for inhibition at 0.1 µM: duplicate, average, read-out: NAMPT Inhibition Rate
Chain of NAMPT (P43490 whole entry): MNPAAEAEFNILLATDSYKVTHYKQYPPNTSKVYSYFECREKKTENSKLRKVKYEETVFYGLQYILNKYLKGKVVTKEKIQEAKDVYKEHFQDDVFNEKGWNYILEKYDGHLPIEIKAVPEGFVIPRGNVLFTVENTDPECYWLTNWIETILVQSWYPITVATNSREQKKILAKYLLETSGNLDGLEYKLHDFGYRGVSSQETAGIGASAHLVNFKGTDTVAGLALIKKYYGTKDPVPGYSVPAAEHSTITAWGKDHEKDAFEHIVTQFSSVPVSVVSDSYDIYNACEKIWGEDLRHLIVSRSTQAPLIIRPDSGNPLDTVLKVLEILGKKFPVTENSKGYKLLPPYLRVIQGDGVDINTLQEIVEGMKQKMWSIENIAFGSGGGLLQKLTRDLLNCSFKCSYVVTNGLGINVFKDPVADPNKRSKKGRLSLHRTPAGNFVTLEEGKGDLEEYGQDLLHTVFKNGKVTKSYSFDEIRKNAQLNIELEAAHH

MDA-MB-468 cells [9] = assay: Comet assay (DNA damage); assay type: cell-based; conditions: 24 h, several concentrations
Description: The comet assay was conducted under alkaline conditions using the Comet Assay Kit (Beyotime, Shanghai, China) following the manufacturer’s guidelines. […] This mixture was spread onto microscope slides and immersed in lysis solution for 1 h. Electrophoresis was carried out in a horizontal apparatus at 25 V and 300 mA. After electrophoresis, slides were stained with propidium iodide (PI) for DNA visualization, and images were captured using a fluorescence inverted microscope.

MDA-MB-468 cells [10] = assay: Annexin V-FITC/PI apoptosis assay (flow cytometry); assay type: cell-based; conditions: 72 h
Description: To investigate whether DDY02 induced apoptosis in MDA-MB-468 cells, we performed the annexin V/PI double staining assay, and the staining results were analyzed by flow cytometry, dividing the results into four quadrants (Q1~Q4). In this representation, Q1 represents necrosis, Q2 represents late apoptosis, Q3 represents early apoptosis, and Q4 represents living cells.
The Annexin V-FITC/PI cell apoptosis detection kit (KeyGen Biotech, Nanjing, China) was employed for the analysis of cell apoptosis. MDA-MB-468 cells (5 × 10^5 cells/mL) were seeded in six-well plates and treated with compounds at corresponding concentrations for 72 h. Subsequently, MDA-MB-468 cells were harvested and incubated with 5 μL of Annexin V-FITC and 5 μL of propidium iodide (PI) in the dark for 15 min at room temperature. Apoptosis data were assessed using flow cytometry (Accuri C6 Plus, BD Bioscience, San Jose, CA, USA).

MDA-MB-468 cells [11] = assay: Cellular NAD level determination (NAD+/NADH WST-8 kit); assay type: cell-based
Description: According to the manufacturer’s instructions, an NAD^+/NADH Assay kit with WST-8 (Beyotime, China) was used to measure the intracellular NAD level. The cells collected by centrifugation were added to NAD^+/NADH lysis buffer to obtain a cell lysate. After adding […] working solution, the lysate was incubated at 37 °C for 10 min, and then followed by the addition of color-developing solution. The total concentration of NADH and NAD can be measured by detecting the absorbance at 450 nm. To measure the concentration of NADH, the cell lysate was incubated at 60 °C for 30 min before adding […] working solution. Finally, the NAD content is obtained by the subtraction [NAD^+] = [NADH + NAD^+] − [NADH].

PARP1 [12] = molecular target: T1, PARP1; parameters: method as in PMID 18579376, PMID 18800822, PMID 24388690, PMID 28340412, PMID 36183505; conditions: in figure; cited from earlier work
[13] = mean ± SD of at least two independent experiments in duplicate

| SMILES | melting point | inhibition at 0.5 µM (PARP1 [7]) | inhibition at 0.1 µM (NAMPT) | IC50 (MDA-MB-231) | BCL2 expression (MDA-MB-468 cells [1]; 1 μM) | IC50 (MDA-MB-468) | viability at 3 µM (MCF-10A) | IC50 at 72 h [2] | accumulation of γ-H2AX (MDA-MB-468 cells [3]; 1 μM) | cytotoxic effects after preincubation with NMN (MDA-MB-468 cells [4]) | inhibitory effect on cell migration (MDA-MB-468 cells [5]; 1 μM) | IC50 (MCF-7) | selectivity of cytotoxic activity between breast cancer cells and normal cells (MCF-10A) (MCF-10A) | cellular NAD levels (MDA-MB-468 cells [11]; 24 h, 1 μM) | other results |
| --- | --- | --- | --- | --- | --- | --- | --- | --- | --- | --- | --- | --- | --- | --- | --- |
| O=C(/C=C/c1cccnc1)NCCCCC1CCN(C(=O)c2ccccc2)CC1 [FK866, reference compound] | – | – | – | 3.83 ± 0.12 µM | no effect on the expression of BCL2 | 4.01 ± 0.21 µM | 65.49 ± 0.41% | 4.41 ± 0.22 µM | promoted the accumulation of γ-H2AX | reversed the cytotoxic effects | weakest inhibitory activity | 5.8 ± 0.86 µM | – | – | – |
| O=C(c1cc(Cc2n[nH]c(=O)c3ccccc23)ccc1F)N1CCN(C(=O)C2CC2)CC1 [Olaparib, reference compound] | – | – | – | 6.74 ± 0.08 µM | significantly inhibited the expression of the BCL2 protein | 6.19 ± 0.09 µM | 91.8 ± 1.78% | 9.61 ± 0.77 µM | – | – | most robust inhibitory effect | 8.68 ± 0.81 µM | no selectivity | did not alter intracellular NAD levels compared to the control | – |
| NC(=O)c1ccccc1OCc1ccc(F)c(C(=O)N2CCN(C(=O)C3CCCC3)CC2)c1 [Compound 16] | – | – | – | – | – | – | – | – | – | – | – | – | – | – | IC50 (PARP1 [12]): 0.061 µM |

Continued, in another order:

| melting point | inhibition at 0.5 µM (PARP1 [7]) | inhibition at 0.1 µM (NAMPT) | SMILES | IC50 (MDA-MB-231) | BCL2 expression (MDA-MB-468 cells [1]; 1 μM) | IC50 (MDA-MB-468) | viability at 3 µM (MCF-10A) | IC50 at 72 h [2] | accumulation of γ-H2AX (MDA-MB-468 cells [3]; 1 μM) | cytotoxic effects after preincubation with NMN (MDA-MB-468 cells [4]) | inhibitory effect on cell migration (MDA-MB-468 cells [5]; 1 μM) | IC50 (MCF-7) | selectivity of cytotoxic activity between breast cancer cells and normal cells (MCF-10A) (MCF-10A) | cellular NAD levels (MDA-MB-468 cells [11]; 24 h, 1 μM) | other results |
| --- | --- | --- | --- | --- | --- | --- | --- | --- | --- | --- | --- | --- | --- | --- | --- |
| 197 to 198 °C | – | – | O=C(NCc1cccnc1)Nc1ccc(S(=O)(=O)N2CCN(C(=O)c3cc(Cc4n[nH]c(=O)c5ccccc45)ccc3F)CC2)cc1 [DDY02, 1-(4-((4-(2-Fluoro-5-((4-oxo-3,4-dihydrophthalazin-1-yl)methyl)benzoyl)piperazin-1-yl)sulfonyl)phenyl)-3-(pyridin-3-ylmethyl)urea] | 10.4 ± 0.16 µM | – | 4.43 ± 0.04 µM | 70.3 ± 1.06% | 5.31 ± 0.12 µM | most substantial effect | reversed the cytotoxic effects | slightly less pronounced inhibitory effect | 7.61 ± 0.14 µM | no selectivity | marginally less potent than FK866 | BCL2 expression (MDA-MB-468 cells [1]; several concentrations): inhibited BCL2 expression in a dose-dependent manner; colony formation (MDA-MB-468 cells [6]; 1 μM): more potent ability to inhibit colony formation compared to Olaparib, albeit slightly less effective than FK866; colony formation (MDA-MB-468 cells [6]; several concentrations): dose-dependent suppression of colony formation; accumulation of γ-H2AX (MDA-MB-468 cells [3]; several concentrations): dose-dependent accumulation of γ-H2AX; IC50 (PARP1 [7]; [13]): 0.05 ± 0.01 µM; fold decrease in inhibitory capacity against PARP1 compared to DDY01 (PARP1 [7]; ratio of IC50 values): 5.5 fold; cell cycle distribution (MDA-MB-468 cells [8]): dose-dependent G1-phase cell cycle arrest; IC50 (NAMPT; [13]): 0.01 ± 0.003 µM; DNA damage (comet assay) (MDA-MB-468 cells [9]): increased DNA damage in a concentration-dependent manner; percentage of apoptotic cells (Q2 + Q3) (MDA-MB-468 cells [10]; 0.3 µM): 13.34%; levels of apoptosis (comparison) (MDA-MB-468 cells [10]; 1 μM): higher levels of apoptosis compared to Olaparib and FK866 alone; percentage of apoptotic cells (Q2 + Q3) (MDA-MB-468 cells [10]; 1 μM): 21.20%; percentage of apoptotic cells (Q2 + Q3) (MDA-MB-468 cells [10]; 3 µM): 48.3%; cellular NAD levels (MDA-MB-468 cells [11]; 24 h post-treatment, several concentrations): reduced cellular NAD levels in a dose-dependent manner; inhibitory effect on cell migration (MDA-MB-468 cells [5]; 3 μM): further augmented |
| 147 to 148 °C | 78% | 86% | NC(=O)c1cc(F)ccc1OCc1cccc(C(=O)N2CCN(S(=O)(=O)c3ccc(NC(=O)NCc4cccnc4)cc3)CC2)c1 [DDY09, 5-Fluoro-2-((3-(4-((4-(3-(pyridin-3-ylmethyl)ureido)phenyl)sulfonyl)piperazine-1-carbonyl)benzyl)oxy)benzamide] | 8.7 ± 0.24 µM | – | 6.98 ± 0.57 µM | 66.9 ± 2.45% | – | – | – | – | 11 ± 0.82 µM | – | – | – |
| > 250 °C | 55% | 7% | NC(=O)c1cccc2[nH]c(C(=O)N3CCN(S(=O)(=O)c4ccc(NC(=S)NCc5cccnc5)cc4)CC3)nc12 [DDY10, 2-(4-((4-(3-(Pyridin-3-ylmethyl)thioureido)phenyl)sulfonyl)piperazine-1-carbonyl)-1H-benzo[d]imidazole-4-carboxamide] | 4.45 ± 0.29 µM | – | 6.74 ± 0.16 µM | 96.9 ± 1.71% | – | – | – | – | 8.83 ± 0.31 µM | – | – | – |
